According to article PMC7697888, “Comprehensive Set of Tertiary Complex Structures and Palmitic Acid Binding Provide Molecular Insights into Ligand Design for RXR Isoforms” (International Journal of Molecular Sciences, 2020):
Blank lines part the entries; values can stand above or below the molecule they belong to. No end group written: not given here. *: point of attachment. Biotin = O=C1N[C@H]2[C@H](CS[C@H]2CCCCC(=O)*)N1

Experiments:
[1] = tested on: RXRα; design: method as in PMID 15073272; conditions: cited from earlier work
[2] = tested on: all RXR subtypes; design: method as in PMID 9205071, PMID 26030625, PMID 27151148; conditions: read-out: EC50 activating all RXR subtypes; cited from earlier work
[3] = tested on: RXR; test: Gal4 hybrid reporter gene assays, competition with bexarotene / antagonist UVI3003 (isoform not specified); assay type: cell-based, human; conditions: UVI3003 at 1 µM; MA, PA and SA at 200 µM
Method: The Gal4 hybrid reporter gene assays for RXRα, RXRβ and RXRγ were performed as described previously using the Gal4-fusion receptor plasmids pFA-CMV-hRXRα-LBD (NR2B1, UniProt entry: P19793, aa 225–462), pFA-CMV-hRXRβ-LBD (NR2B2, UniProt entry: P28702-1, aa 294–533) and pFA-CMV-hRXRγ-LBD (NR2B3, UniProt entry: P48443-1, aa 229–463), which code for the hinge region and LBD of the canonical RXR isoform. pFR-Luc (Stratagene, San Diego, CA, USA) as the reporter plasmid and pRL-SV40 (Promega, Madison, WI, USA) as the internal control were used. HEK293T cells were grown in DMEM high-glucose medium (supplemented with 10% fetal calf serum (FCS), sodium pyruvate (1 mM), penicillin (100 U/mL) and streptomycin (100 μg/mL)) at 37 °C and 5% CO2, and seeded in 96-well plates (3.0 × 10^4 cells/well) on the day before transfection. Right before transfection, medium was changed to Opti-MEM without supplements and cells were transiently transfected using the Lipofectamine LTX reagent (Invitrogen, Carlsbad, CA, USA) according to the manufacturer’s protocol with pFR-Luc (Stratagene), pRL-SV40 (Promega) and the respective pFA-CMV-hRXR-LBD clone. After 5 h of incubation, medium was changed to Opti-MEM (supplemented with penicillin (100 U/mL) and streptomycin (100 μg/mL)) additionally containing 0.1% DMSO and the respective test compounds or 0.1% DMSO alone as the untreated control. After overnight incubation (12–14 h), cells were assayed for luciferase activity using the Dual-Glo luciferase assay system (Promega) according to the manufacturer’s protocol on a Tecan Spark M10 luminometer (Tecan Deutschland GmbH, Crailsheim, Germany). Each sample was tested in at least three biologically independent repeats in duplicates. Data were normalized for transfection efficiency and cell growth by division of firefly luciferase data by Renilla luciferase data and multiplying by 1000 to obtain relative light units (RLUs). Fold activation denotes the mean RLU of test compounds at a respective concentration divided by the mean RLU of untreated control. […]

[4] = molecular target: T1, RXRγ ligand-binding domain (NR2B3, aa 233–463) (human, UniProt P48443 233-463); test: crystal structure; sitting drop vapor diffusion at 20 °C; RXR LBD (10–13 mg/mL) with GRIP-1 peptide and palmitic acid (carried over from E. coli for RXRα, exogenously added for RXRβ and RXRγ); conditions: both partners purified
T1 construct: Cloned in pNIC28-Bsa4; Crystallised with exogenously added palmitic acid; also called RXRγ LBD; not shown: histidine tag, N-terminal, cleaved
T1 sequence (looked up): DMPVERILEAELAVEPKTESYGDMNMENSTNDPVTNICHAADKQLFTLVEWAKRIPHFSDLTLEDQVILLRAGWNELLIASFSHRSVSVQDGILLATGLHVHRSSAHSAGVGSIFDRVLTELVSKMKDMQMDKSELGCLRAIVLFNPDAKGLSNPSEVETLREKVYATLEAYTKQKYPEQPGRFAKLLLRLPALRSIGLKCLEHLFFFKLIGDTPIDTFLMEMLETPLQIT

[5] = molecular target: T2, RXRβ ligand-binding domain (NR2B2, aa 298–533) (human, UniProt P28702 298-533); test: as above; conditions: both partners purified
T2 construct: Cloned in pNIC28-Bsa4; Crystallised with exogenously added palmitic acid; also called RXRβ LBD; not shown: histidine tag, N-terminal, cleaved
T2 sequence (looked up): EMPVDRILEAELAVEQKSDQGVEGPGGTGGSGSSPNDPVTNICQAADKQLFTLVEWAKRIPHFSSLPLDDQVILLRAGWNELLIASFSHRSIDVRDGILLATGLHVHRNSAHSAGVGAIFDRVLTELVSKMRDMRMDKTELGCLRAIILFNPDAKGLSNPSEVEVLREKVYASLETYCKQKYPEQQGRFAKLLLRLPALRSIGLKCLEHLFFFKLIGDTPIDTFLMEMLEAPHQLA

[6] = molecular target: T3, RXRα ligand-binding domain (NR2B1, aa 223–462) (human, UniProt P19793 223-462); test: as above; conditions: both partners purified
T3 construct: Cloned in pNIC28-Bsa4; Palmitic acid carried over from E. coli sat in the ligand pocket in the crystal; also called RXRα LBD; retinoid X receptor α; not shown: histidine tag, N-terminal, cleaved
T3 sequence (looked up): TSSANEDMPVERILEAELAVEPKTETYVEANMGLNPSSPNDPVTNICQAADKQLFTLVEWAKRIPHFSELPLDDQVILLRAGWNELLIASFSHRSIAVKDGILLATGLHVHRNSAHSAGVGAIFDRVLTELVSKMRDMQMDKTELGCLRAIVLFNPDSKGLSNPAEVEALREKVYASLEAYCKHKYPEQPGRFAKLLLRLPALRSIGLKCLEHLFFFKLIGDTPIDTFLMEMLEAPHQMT

[7] = molecular target: T4, sGFP-RXRα LBD (aa 225–462) (human, UniProt P19793 225-462); test: AlphaScreen or HTRF; 12 nM sGFP-RXRα LBD (acceptor), 12 nM biotin-SRC-1 peptide on terbium cryptate-streptavidin (donor); 25 mM HEPES pH 7.5, 150 mM KF, 5% glycerol, 0.1% CHAPS, 5 mM DTT, 1% DMSO; 2 h at room temperature; with myristic, palmitic or stearic acid at varying concentrations, with or without 0.3 µM bexarotene; SR11237 as positive control; conditions: both partners purified
T4 construct: also called recombinant RXRα LBD fused to N-terminal superfolder green fluorescent protein; source: recombinant; not shown: superfolder green fluorescent protein (sGFP), N-terminal, kept
T4 sequence (looked up): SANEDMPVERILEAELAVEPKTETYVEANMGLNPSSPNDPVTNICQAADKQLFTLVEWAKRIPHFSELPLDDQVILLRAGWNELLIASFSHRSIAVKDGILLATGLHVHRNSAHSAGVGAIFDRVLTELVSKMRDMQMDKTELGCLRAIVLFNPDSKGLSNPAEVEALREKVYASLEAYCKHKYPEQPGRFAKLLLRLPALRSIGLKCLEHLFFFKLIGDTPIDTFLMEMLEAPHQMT

Molecule: CCCCC/C=C\C/C=C\C/C=C\C/C=C\CCCC(=O)O [arachidonic acid]
EC50 [1]: ~10 µM

Molecule: CC1=C(/C=C/C(C)=C\C=C\C(C)CC(=O)O)C(C)(C)CCC1 (stereo not drawn) [9-cis-13,14-dihydroretinoic acid]
EC50 [2]: ~0.1 µM

Molecule: CCCCCOc1cc2c(cc1-c1cc(/C=C/C(=O)O)ccc1O)C(C)(C)CCC2(C)C [UVI3003, reference compound]
reversal of RXR agonistic effect of MA, PA and SA [3]: fully reversed

Molecule: CC/C=C\C/C=C\C/C=C\C/C=C\C/C=C\C/C=C\CCC(=O)O [docosahexaenoic acid]
EC50 [1]: ~10 µM

Molecule: CC1=C(/C=C/C(C)=C\C=C\C(C)=C\C(=O)O)C(C)(C)CCC1 [9-cis-retinoic acid]
EC50 [2]: ~0.1 µM

binding result [4]: binds
binding result [5]: binds
binding result [6]: binds
B1: glucocorticoid receptor interacting protein 1 (GRIP-1) co-regulator peptide (peptide)
peptide: KHKILHRLLQDSSY
notes: NCOA2/TIF2) with an LxxLL box; last printed residue of the peptide; also called GRIP-1 peptide

binding result [7]: binds
B2: SRC-1-derived peptide (steroid receptor co-activator 1) (peptide)
peptide: Biotin-CPSSHSSLTERHKILHRLLQEGSPS
notes: NCOA1), contains the consensus motif LxxLL; Coupled through its biotin to terbium cryptate-streptavidin conjugate (FRET donor); source: bought: Eurogentec Deutschland GmbH; not shown: biotin, N-terminal, kept
